In patent US20250195599A1, “ANTI-DIABETIC STEROIDAL LACTONES OF WITHANIA COAGULANS FOR TREATMENT OF TYPE 2 DIABETES” (Khalifa University of Science and Technology, priority 2022, published 2025):

Columns and labels:
[1] = test system: myogenin; experiment: Myogenin immunofluorescence staining in D-HSMM; type: cell-based, human; settings: 48 h, optimum concentration, vs. D-HSMM control (untreated cells), FIG. 3A
Procedure: The supernatant was removed, cells were washed with warm PBS (37° C.), fixed with 100 μl PBS containing 4% paraformaldehyde at room temperature for 10 mins. Cells were permeabilized with 100 μl of 0.25% Triton X-100 on PBS for 10 mins at 25° C. The cells were then blocked with 100 μl of 10% normal goat serum (NGS), incubated with 50 μl of primary anti-myogenin antibody (Cat no: MAB3876, Merck Millipore, USA) diluted 1:500 in block solution overnight at 4° C. Cells were washed in PBS (200 μl) three times, incubated with 50 μl Goat anti-Mouse IgG (H+L) secondary antibody (Cross adsorbed, Alexa Fluor 594, Cat no: R37121, Thermo Fisher Scientific, USA) at room temperature for 30 min. Nuclei were counterstained with 1 μg/ml Hoechst 33342 solution (Cat no: 62249, Thermo Fisher Scientific, USA) in PBS (100 μl/well). For each treatment, cells were examined under EVOS F1 Microscope (Cat no: AMF4300, Life Technologies, USA) and photographed. Approximately 10-12 digital photographs were taken of each treatment for subsequent offline analysis. The total number of immune-positive and immuno-negative cells were counted using Image J (NIH, USA) software. […] Data were presented as a percentage of control (untreated cells).

[2] = test system: MAFbx/atrogin-1; experiment: Atrogin-1/Fbx32 immunofluorescence staining in D-HSMM; type: cell-based, human; settings: 48 h, optimum concentration, vs. control (non-treated cells), FIG. 4A
Procedure: The supernatant was removed, cells were washed with warm PBS (37° C.), fixed with phosphate-buffered saline (PBS) containing 4% paraformaldehyde at room temperature for 10 mins. Cells were permeabilized with 0.25% Triton X-100 on PBS for 10 mins at 25° C. The cells were then blocked with 100 μl of 10% NGS in PBS at room temperature for 2 hours. The cells were then incubated with 50 μl primary Anti-Fbx32 antibody (Cat no: NBP2-76836, Novus Biological, USA) diluted 1:100 in block solution overnight at 4° C. Cells were washed in PBS three times (200 μl), incubated with 50 μl Goat anti-Rabbit IgG (H+L) (Cross adsorbed, Alexa Fluor 488, Cat no: R37116, Thermo Fisher Scientific, USA) secondary antibody at room temperature for 30 min. Nuclei were counterstained with 1 μg/ml Hoechst 33342 solution (Cat no: 62249, Thermo Fisher Scientific, USA) in PBS (100 μl/well). For each treatment, cells were examined under EVOS F1 Microscope (Cat no: AMF4300, Life Technologies, USA) and photographed. Approximately 10-12 digital photographs were taken of each treatment for subsequent offline analysis. The total number of immune-positive and immuno-negative cells were counted using Image J (NIH, USA) software. […] Data were presented as a percentage of control (untreated cells).

[3] = test system: MyoD; experiment: MyoD1 immunofluorescence staining in D-HSMM; type: cell-based, human; settings: for MyoD positive cells: optimum concentration, vs. D-HSMM control (non-treated cells)
Procedure: The supernatant was removed, cells were washed with warm PBS (37° C.), fixed, and permeabilized with 100 μl phosphate-buffered saline (PBS) containing 4% paraformaldehyde and 0.1% Triton X-100 at room temperature for 10 mins. Next, cells were blocked with 1% BSA (100 μl) in PBS at room temperature for 1 hour. The cells were then incubated with 50 μl of primary anti-MyoD1 antibody (Cat no: ab16148, Abcam, USA), diluted 1:100 in a block solution, overnight at 4° C. Cells were washed in PBS three times, incubated with 50 μl Goat anti-Mouse IgG (H+L) secondary antibody (Cross adsorbed, Alexa Fluor 594, Cat no: R37121, Thermo Fisher Scientific, USA) at room temperature for 30 min. Nuclei were counterstained with 1 μg/ml Hoechst 33342 solution (Cat no: 62249, Thermo Fisher Scientific, USA) in PBS (100 μl/well). For each treatment, cells were examined under EVOS F1 Microscope (Cat no: AMF4300, Life Technologies, USA) and photographed. Approximately 10-12 digital photographs were taken of each treatment for subsequent offline analysis. The total number of immune-positive and immuno-negative cells were counted using Image J (NIH, USA) software. […] Data were presented as a percentage of control (untreated cells).

[4] = test system: GLUT4; experiment: Total GLUT4 immunofluorescence in D-HSMM myotubes; type: cell-based, human; settings: FIG. 6B; for expression of GLUT-4: treated 24 h on day 8, 100 nM insulin challenge, vs. D-HSMM control (untreated cell)
Procedure: Measurement of Total GLUT4: Approximately 2×10^3 cells were seeded in a 96 well clear bottom black poly D lysine (5 μg/cm^2) coated plate and allow to grow with a media change after every 48 h. […] The supernatant was removed and challenged for 5 mins with 100 nM insulin. Next, cells were washed with warm PBS (37° C.), fixed with phosphate-buffered saline (PBS) containing 4% paraformaldehyde at room temperature for 10 mins. Cells were permeabilized with 0.5% Triton X-100 on PBS for 10 mins at 25° C. The cells were then blocked with 100 μl of 10% NGS in PBS at room temperature for 2 hours. The cells were then incubated with 50 μl GLUT4 antibody (Cat no: NBP1-49533, Novus Biological, USA) diluted 1:100 in block solution overnight at 4° C. Cells were washed in PBS three times (200 μl), incubated with 50 μl Goat anti-Rabbit IgG (H+L) (Cross adsorbed, Alexa Fluor 488, Cat no: R37116, Thermo Fisher Scientific, USA) secondary antibody at room temperature for 30 min. Total fluorescence was measured m at […] (excitation/emission) by Tecan multimode plate reader (M200, Tecan, Switzerland). Cells without primary antibody were used for blank reduction. The relative GLUT 4 (%) related to control wells containing cells with DMEM:F12 medium was calculated by (RFU) test/(RFU) control×100. Where (RFU) test is the fluorescence of the test sample and (RFU) control is the fluorescence of the control sample.

[5] = test system: Diseased Human Skeletal Muscle Myoblasts (D-HSMM) diabetes type II; experiment: LDH release cytotoxicity assay; settings: D-HSMM myoblasts treated 48 h; W. Coagulans and Coagulansin-A 1×10^−15 g/ml; vs. control (non-treated cells); FIG. 2A
Procedure: Cell line: The Clonetics® Diseased Human Skeletal Muscle Myoblasts (D-HSMM) diabetes type II, (Cat no: CC-2901) sourced from a donor, were purchased from Lonza (Lonza Bioscience, USA).
Cells were cultured in the growth medium, Skeletal Muscle Growth Media-2 (SkGM-2; CC-3244) containing basal medium, Human epidermal growth factor (hEGF), Dexamethasone, L-glutamine, Fetal Bovine Serum (FBS), and Gentamicin/Amphotericin B (GA-1000). Cells were seeded at 6250 cells/cm^2 in T175 flasks and maintained at 37° C. in a humidified incubator (Thermo Scientific, USA) containing 5% carbon dioxide (CO2). After 24 hours, when cells adhered to the bottom of the flask, media was changed every 24-48 hours. […]
The cytotoxicity detection kit (Cat no: 11644793001, Roche, USA) was used to measure lactate dehydrogenase (LDH) release according to the manufacturer's instructions. Briefly, released LDH in culture supernatants was measured with a 30-mins coupled enzymatic assay that results in the reduction of tetrazolium salt, Iodotetrazolium chloride (INT) into a formazan (red). […] Absorbance at 490 nm was measured with an Emax Plus microplate reader (CA 94089, Molecular devices, USA). The reader was calibrated to zero absorbance using a culture medium without cells. The untreated cells served as the control, and results were calculated as the percentage of viability in relation to the control. […]

[6] = test system: Diseased Human Skeletal Muscle Myoblasts (D-HSMM) diabetes type II; type: cell-based
Procedure: Measurement of cellular viability: Cell proliferation was measured by using MTT 3-(4,5-dimethylthiazol-2-yl)-2,5-diphenyltetrazolium bromide (MTT) (Cat no: M2128, Sigma Aldrich, USA). […] After 48 h of incubation, plates were removed from the CO2incubator and washed with 200 μl PBS. Thereafter, 100 μl of MTT solution (0.5 mg/ml in SkGM-2 medium) was added to each well. The contents were placed on a shaker for 5 min and were incubated for 4 hours in a CO2 incubator to allow the MTT to be metabolized. After incubation, the supernatant was removed, and the plate was washed with 300 μl PBS. The plates were inverted and strongly tapped on a paper towel to remove the medium completely. […] For the blank control, wells were set without cells but received all the reagents.

[7] = test system: GLUT1; experiment: Cell-based GLUT1 ELISA in D-HSMM myotubes; set-up: species or system human; settings: treated 24 h on day 8, FIG. 6A
Procedure: After 24 hours, GLUT1 was measured by using CytoGlow™ cell-based GLUT 1 ELISA kit (Cat no: MBS95002558, MyBioSource, USA), according to the manufacturer's protocol. Briefly, cells were fixed with phosphate-buffered saline (PBS) containing 4% paraformaldehyde at room temperature for 20 mins. Next, cells were quenched for 20 mins at room temperature. Cells were washed in PBS three times, blocked at room temperature for 1 hour. Cells were washed in PBS three times, incubated with primary GLUTI antibody overnight at 4° C. Cells were washed in PBS three times (200 μl), incubated with HRP-conjugated secondary antibody at room temperature for 1.5 hours. Cells were washed in PBS three times and incubated with a ready-to-use substrate for 30 minutes at room temperature in the dark with gentle shaking on the shaker. The reaction was stopped, and OD was measured at 450 nm immediately using an Emax Plus microplate reader (Molecular devices, CA 94089, USA).

[8] = test system: D-HSMM myotubes; experiment: Insulin-stimulated 2-NBDG glucose uptake in D-HSMM myotubes; type: cell-based, human; settings: FIG. 7
Procedure: Insulin-stimulated 2-NBDG uptake: The ability of the test compounds on insulin-stimulated glucose uptake was measured using the Glucose Uptake Cell-Based Assay Kit (Cat no: 600470, Cayman, Michigan, USA) according to the manufacturer's instructions. Briefly, the cells were seeded at a density of 2×10^3 cells/well in a 96 well black, clear-bottom poly D lysine coated plate and allowed to grow with a media change after every 48 hours. […] Subsequently, cells were washed with 300 μl PBS three times and incubated with PBS for 5 mins at 37° C., in a CO2 incubator. Cells were challenged for 20 min with 50 μl of 100 nM insulin and 50 μl of 100 μg/ml fluorescent glucose analog 2-deoxy-2-[(7-nitro-2,1,3-benzoxadiazol-4-yl) amino]-D-glucose (2-NBDG) in Krebs/Ringer buffer (KRB) (118.5 mM NaCl, 25 mM NaHCO3, 4.74 mM KCl, 1.19 mM MgSO4, 2.54 mM CaCl2, 10 mM HEPES, 1.19 mM KH2PO4, 0.1% BSA) (pH 7.4). At the end of the incubation, the plates were centrifuged for 3 mins at 400×g at room temperature, and the supernatant was aspirated. Cells were washed with 200 μl/well cell-based assay buffer and centrifuged for 3 mins at 400×g at room temperature. […] The fluorescence reading of each well was immediately measured (excitation/emission=485 nm/535 nm) by using a Tecan multimode plate reader (Cat no: M200, Tecan, Switzerland). […]

[9] = test system: urease; settings: stated as background knowledge; cited from earlier work
[10] = test system: bovine embryo; settings: stated as background knowledge; cited from earlier work

## Insulin
[1]
  expression of myogenin: significantly increased expression
[2]
  expression of atrogin1: significantly suppressed expression
[3]; D-HSMM, 48 h, FIG. 5A
  MyoD positive cells: enhanced expression
[4]
  expression of GLUT-4: upregulated
[5]
  LDH release: significant decrease

## COc1ccc(Cl)cc1C(=O)NCCc1ccc(S(=O)(=O)NC(=O)NC2CCCCC2)cc1 [Glibenclamide, reference compound]
[3]; D-HSMM, 48 h, FIG. 5A
  MyoD positive cells: enhanced expression

## CN(C)C(=N)N=C(N)N [Metformin]
[1]
  expression of myogenin: remained unaffected
[2]
  expression of atrogin1: significantly suppressed expression
[3]; D-HSMM, 48 h, FIG. 5A
  MyoD positive cells: did not show any difference

## CC1=C(CO)C(=O)O[C@@H]([C@](C)(O)[C@]2(O)CC[C@@]3(O)C4CC=C5CC=CC(=O)[C@]5(C)C4CC[C@]23C)C1 (stereo partly drawn) [Coagulansin-A, (14α, 17S,20S,22R)-14, 17,20,27-tetrahydroxy-1-oxowitha-2,5,24-trienolide)]
[6]
  MTT metabolic rate, dose optimization: did not affect the metabolic rate
  MTT viability: did not affect the viability
[1]
  expression of myogenin: significantly increased expression
[2]
  expression of atrogin1: significantly suppressed expression
[3]; D-HSMM myoblasts, 48 h, vs. metformin and pioglitazone treated cells, FIG. 5A
  MyoD positive cells compared to metformin and pioglitazone: Significantly increased MyoD positive cells
[3]; D-HSMM, 48 h, FIG. 5A
  MyoD positive cells: enhanced expression
[3]; D-HSMM, concentration 10^−15 g/ml (of 10^−13, 10^−15, 10^−17 g/ml tested), vs. diabetic control, FIG. 9
  MyoD positive cells, dose optimization: enhanced expression
[7]
  expression of GLUT1: remained unaffected
[4]
  expression of GLUT-4: upregulated
[4]; vs. metformin (as printed in text)
  expression of GLUT-4 compared to metformin: significant increase
[8]; treated 24 h, vs. control (untreated cells)
  insulin-stimulated glucose uptake (2-NBDG): significantly enhanced glucose uptake
[8]; vs. insulin, metformin, and pioglitazone
  insulin-stimulated glucose uptake compared to positive controls: increased glucose uptake
[9]
  antiurease activity: antiurease activity
[10]
  effects on development of bovine embryo: beneficial effects on development of bovine embryo
